According to ChEMBL document CHEMBL1158624, “Prenylcoumarin with Rev-export inhibitory activity from Cnidii Monnieris Fructus” (Bioorg Med Chem Lett, 2010):
The source made the active and inactive calls. The calls are words filed in the database; no cut-off is given here.

Assays:
Assay type in all cases: cell-based
Exportin-1 [1] = target: T1, Exportin-1 (Homo sapiens, UniProt O14980); assay: Inhibition of CRM1-mediated hemagglutininin-tagged HIV1 Rev protein nuclear export in human HeLa cells assessed as nucleus localization at 25 uM after 12 hrs by indirect fluorescent antibody technique
Exportin-1 [2] = target: T1, Exportin-1; assay: Inhibition of CRM1-mediated hemagglutininin-tagged HIV1 Rev protein nuclear export in human HeLa cells assessed as nucleus localization after 12 hrs by indirect fluorescent antibody technique
Exportin-1 [3] = target: T1, Exportin-1; assay: Inhibition of CRM1-mediated hemagglutininin-tagged HIV1 Rev protein nuclear export in human HeLa cells assessed as nuclear localization at 5 uM after 12 hrs by indirect fluorescent antibody technique

T1 sequence (O14980 whole entry): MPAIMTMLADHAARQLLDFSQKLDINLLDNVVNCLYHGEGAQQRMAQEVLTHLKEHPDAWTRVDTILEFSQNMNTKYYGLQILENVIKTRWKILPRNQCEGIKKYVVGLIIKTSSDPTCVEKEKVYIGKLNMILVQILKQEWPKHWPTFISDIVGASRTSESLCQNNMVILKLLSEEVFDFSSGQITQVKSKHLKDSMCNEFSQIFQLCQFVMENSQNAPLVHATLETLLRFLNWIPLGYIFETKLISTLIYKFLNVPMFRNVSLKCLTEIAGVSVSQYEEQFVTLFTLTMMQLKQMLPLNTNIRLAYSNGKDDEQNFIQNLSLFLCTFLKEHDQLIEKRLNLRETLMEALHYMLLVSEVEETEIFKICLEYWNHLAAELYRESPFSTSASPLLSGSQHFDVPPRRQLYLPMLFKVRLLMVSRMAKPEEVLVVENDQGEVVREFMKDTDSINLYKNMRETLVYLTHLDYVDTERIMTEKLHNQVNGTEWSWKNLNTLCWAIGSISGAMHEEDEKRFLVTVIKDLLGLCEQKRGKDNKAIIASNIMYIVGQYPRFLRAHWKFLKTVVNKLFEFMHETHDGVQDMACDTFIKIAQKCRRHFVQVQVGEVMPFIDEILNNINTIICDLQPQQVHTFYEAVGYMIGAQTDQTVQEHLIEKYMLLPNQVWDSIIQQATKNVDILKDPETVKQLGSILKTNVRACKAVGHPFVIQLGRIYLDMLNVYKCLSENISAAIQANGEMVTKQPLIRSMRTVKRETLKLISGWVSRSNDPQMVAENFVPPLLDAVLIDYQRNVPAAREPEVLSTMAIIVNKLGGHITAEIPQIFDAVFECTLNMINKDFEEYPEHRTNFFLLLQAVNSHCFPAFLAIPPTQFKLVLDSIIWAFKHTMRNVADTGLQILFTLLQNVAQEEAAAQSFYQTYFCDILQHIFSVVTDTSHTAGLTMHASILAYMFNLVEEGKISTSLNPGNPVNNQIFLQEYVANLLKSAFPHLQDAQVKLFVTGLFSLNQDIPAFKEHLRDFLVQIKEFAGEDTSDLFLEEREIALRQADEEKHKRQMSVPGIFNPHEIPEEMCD

Row | SMILES | inhibition (Exportin-1 [1]) | IC50 (Exportin-1 [2]) | inhibition (Exportin-1 [3])
1 | COc1ccc2c(c1CC=C(C)C)OC(=O)CC2 | 2.6% |  | 
2 | O=c1ccc2ccccc2o1 [COUMARIN] |  | > 25 µM | 

Now from value to compound:

Row | inhibition (Exportin-1 [1]) | IC50 (Exportin-1 [2]) | inhibition (Exportin-1 [3]) | SMILES
3 |  | 6.4 µM |  | CC(C)=CCc1cccc2ccc(=O)oc12
4 |  | > 25 µM |  | COc1ccc2ccc(=O)oc2c1 [HERNIARIN]
5 |  | 1.6 µM | Active | COc1ccc2ccc(=O)oc2c1CC=C(C)C [OSTHOLE]
